{
  "source": "patent US11299458B2",
  "about": "“Crystalline compounds” (OTSUKA AMERICA PHARMACEUTICAL, INC., priority 2015, dated 2022)",
  "key": {"[1]": {"assay": "Accelerated stress conditions (relative humidity stress), solid form by XRPD", "type": "physicochemical", "conditions": "two weeks", "description": "Relative Humidity Stress: Solids are stored at approximately 40° C./75% RH condition for a measured time period by placing the solids into a vial inside a sealed temperature/humidity chamber at the controlled condition. Samples are analyzed after removal from the stress environment.\nCrystalline Forms A, B, and C are exposed to accelerated stress conditions for two weeks (Table 18 below). […] Crystalline Form C is metastable at this condition.\nExperimental: Relative Humidity Stress\nThe following relative humidity jars (saturated salt solutions are used to generate desired relative humidity) are utilized: 75% RH (NaCl) and 56% RH (NaBr) (Nyqvist, H., Int. J. Pharm. Tech. &Prod. Mfr. 1983, 4 (2), 47-48)."}, "[2]": {"assay": "Storage stability of solid form, XRPD after storage", "type": "physicochemical", "description": "Six scale-up attempts are conducted to prepare Crystalline Form C by cooling in isopropanol on approximately 50-150 mg scale (Table 11) and the solids tested by XRPD. At refrigerator temperature, precipitated solids yield Form B. Seeding with Form C after cooling in the refrigerator (no solids observed) and before placing in the freezer yield XRPD pattern of Form C with B peaks. Precipitation at freezer temperature results in solids with an XRPD pattern of Form C with A peaks. A solution placed in the freezer after cooling to room temperature with a lower concentration (7 mg/mL compared to 10 mg/mL) yields Form B. By crash cooling (ambient solution placed into dry ice/isopropanol), solids generated are a mixture of Forms B and A. The last attempt on an approximate 50-mg scale generates a mixture of Forms A and C.\nAn elliptically graded multilayer mirror is used to focus Cu Kα X-rays through the specimen and onto the detector. Prior to the analysis, a silicon specimen (NIST SRM 640e) is analyzed to verify the observed position of the Si 111 peak is consistent with the NIST-certified position. A specimen of the sample is sandwiched between 3-μm-thick films and analyzed in transmission geometry. A beam-stop, short antiscatter extension, and antiscatter knife edge are used to minimize the background generated by air. Soller slits for the incident and diffracted beams are used to minimize broadening from axial divergence. The diffraction pattern is collected using a scanning position-sensitive detector (X'Celerator) located 240 mm from the specimen and Data Collector software v. 2.2b. Data acquisition parameters are: Panalytical X-Pert Pro MPD PW3040 Pro, X-ray Tube: Cu (1.54059 Å), Voltage: 45 kV, Amperage: 40 mA, Scan Range: 1.00-39.99° 2θ, Step Size: 0.017° 2θ, Collection Time: 719 s, Scan Speed: 3.3°/min., Slit: DS: ½°, SS: null, Revolution Time: 1.0 s, Mode: Transmission."}},
  "data": [
    {"compound": "Cl.c1ccc2cc([C@]34CNC[C@H]3C4)ccc2c1", "note": "[Crystalline Form A, (1R,5S)-1-(naphthalen-2-yl)-3-azabicyclo[3.1.0]hexane hydrochloride]", "values": [
      {"measurement": "solid form by XRPD after accelerated stress", "setting": "[1]; 30° C./56% RH", "result": "remain unchanged"},
      {"measurement": "solid form by XRPD after accelerated stress", "setting": "[1]; 40° C./75% RH, hydrochloride", "result": "remain unchanged"},
      {"measurement": "solid form by XRPD after long-term storage", "setting": "[2]; long-term storage, product of Example 5", "result": "consistent with Crystalline Form A"},
      {"measurement": "XRPD Result after 22 days of ambient storage", "setting": "[2]; solids from IPA CC (70° C. to dry ice/IPA), freezer/2 d, after 22 days of ambient storage", "result": "storage: C +"}
    ]}
  ]
}
